Results taken from paper PMC10258794, “To Fold or Not to Fold: Diastereomeric Optimization of an α-Helical Antimicrobial Peptide” (Journal of Medicinal Chemistry, 2023).
In brackets after ≈: the same amount, converted by molar mass. Read-outs that look alike come from different tables or passages of the source. Non-standard residues stand in square brackets, D forms with d. Residues, ends and D or L forms follow the SMILES beside them.

Experiments:
[1] = system: E. coli W3110
Outline: (§1)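 Twofold dilution series vs. bacteria (OD600 0.022 dilution, about 5 × 10^5 CFU) in Mueller–Hinton pH 7.4. Incubated 37 °C, 16–20 h, static. MTT added; visual yellow endpoint = MIC.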

[2] = system: Pseudomonas aeruginosa, Klebsiella pneumoniae, Acinetobacter baumannii, Escherichia coli, and methicillin-resistant Staphylococcus aureus; conditions: summary of Table 1
Outline: as §1

[3] = system: P. aeruginosa PAO1
Outline: as §1

[4] = system: A. baumannii ATCC19606
Outline: as §1

[5] = system: K. pneumoniae NCTC418
Outline: as §1

[6] = system: S. aureus COL MRSA; conditions: for MIC S. aureus COL MRSA: MH broth pH 7.4, 16–20 h, 37 °C
Outline: as §1

[7] = system: HEK293 cells; test: Alamar blue cytotoxicity, HEK293; assay type: cell-based, human; conditions: 24 h, mean ± SD, n = 3, read-out: Toxicity on HEK293 cells
Protocol: The A549 human lung adenocarcinoma cells are derived from a patient and were kindly given to us by Dr. Georgia Konstatinidou (Pharmacology Institute, Bern University). HEK293T cells were obtained from ATCC (CRL-11268). A549 and HEK293 were cultured in an incubator at 37 °C with 5% CO2 in RPMI-1640 (Gibco) and DMEM (Gibco) containing 10% fetal bovine serum (Thermo Fisher), 100 I.U./mL penicillin, and 100 μg/mL streptomycin (Gibco).
The viability of the cells was assessed with an AlamarBlue assay (ThermoFisher). Cells were seeded into 96-well plates, 4000 cells/well (HEK293) and 8000 cells/well (A549), the day before the experiment. Cells were then treated with the increasing concentration of the compound and incubated for 24 h at 37 °C in the presence of 5% CO2. The next day, the medium was removed and replaced by a 10% AlamarBlue solution in full growth medium (DMEM or RPMI-1640). The cells were incubated for 3–5 h at 37 °C with 5% CO2 in a humidified atmosphere. The fluorescence was then measured on a Tecan Infinite M1000 Pro plate reader at λex 560 nm and λem 590 nm. The value was normalized according to the untreated cells.

[8] = system: Staphylococcus epidermis; test: MIC broth microdilution, Staphylococcus epidermis; assay type: cell-based; conditions: pH 7.4
Outline: as §1

[9] = system: Stenotrophomonas maltophilia; test: microbe, parasite or virus in culture; assay type: cell-based; conditions: pH 7.4
Outline: as §1

[10] = system: K. pneumoniae Oxa-48; test: MIC broth microdilution, K. pneumoniae Oxa-48; assay type: cell-based, Klebsiella pneumoniae; conditions: MDR strain; MH broth pH 7.4, 16–20 h, 37 °C
Outline: as §1

[11] = system: P. aeruginosa ZEM9A; test: microbe, parasite or virus in culture; assay type: cell-based, Pseudomonas aeruginosa; conditions: pH 7.4
Outline: as §1

[12] = system: S. aureus Newman
[13] = system: PA14 4.13 (phoQ); test: microbe, parasite or virus in culture; conditions: supplementary CSV
Outline: as §1

[14] = system: P. aeruginosa ZEM-1A; test: microbe, parasite or virus in culture; conditions: pH 7.4
Outline: as §1

[15] = system: PA14 4.18 (pmrB); test: microbe, parasite or virus in culture; conditions: supplementary CSV
Outline: as §1

[16] = system: P. aeruginosa PA14; test: microbe, parasite or virus in culture
Outline: as §1

[17] = system: Burkolderia cenocepacia; test: microbe, parasite or virus in culture; conditions: MDR strain; MH broth pH 7.4, 16–20 h, 37 °C
[18] = system: Enterobacter cloacae; test: microbe, parasite or virus in culture; conditions: pH 7.4
Outline: as §1

[19] = system: PA14 2P4 (pmrB); test: microbe, parasite or virus in culture; conditions: supplementary CSV
Outline: as §1

[20] = system: human red blood cells; test: Hemolysis assay (MHC)
Protocol: To determine the MHC stock solutions, 8 mg/mL peptide in PBS (pH 7.4) was prepared, and 50 μL was diluted serially by l/2 in 50 μL of PBS (pH 7.4) in a 96-well plate (Costar or Nunc, polystyrene, untreated). […] Plasma was discarded, and the pellet was re-suspended in a 15 mL Falcon tube in 5 mL of PBS. The washing was repeated three times, and the remaining pellet was re-suspended in 10 mL of PBS. The hRBC suspension (50 μL) was added to each well, and the plate was incubated at room temperature for 4 h. MHC end points were determined by visual determination of the wells after the incubation period. Controls on each plate included a blank medium control (50 μL PBS + 50 μL of hRBCs suspension) and a hemolytic activity control (mQ-deionized water 50 μL + 50 μL hRBC suspension).

[21] = EYPC vesicle leakage assay; assay type: biochemical; conditions: 10 μg/mL of compound; 10 mM TRIS, 107 mM NaCl, pH 7.4
Outline: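 Egg PC or egg PG vesicles (~2.5 mM lipid) were loaded with 50 mM CF in 10 mM TRIS pH 7.4, with 10 mM TRIS/107 mM NaCl outside. Peptide at 10 or 50 μg/mL was added at 45 s, and CF efflux was followed at λex 492/λem 517 nm, normalized to complete lysis.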

[22] = EYPG vesicle leakage assay; assay type: biochemical; conditions: 10 μg/mL of compound; 10 mM TRIS, 107 mM NaCl, pH 7.4
Protocol: 5(6)-carboxyfluorescein (CF) was purchased from Sigma. EYPC, EYPG, and a Mini-Extruder were purchased from Avanti Polar Lipids. Egg PC or Egg PG thin lipid layers were prepared by evaporating a solution of 100 mg of EYPC or EYPG in 4 mL of MeOH/CHCl3 (1:1) on a rotary evaporator at room temperature and then dried in vacuo overnight. […] Extravesicular components were removed by gel filtration (Sephadex G-50) with 10 mM TRIS, 107 mM NaCl, pH 7.4 buffer. Final conditions: ∼2.5 mM PC or PG; inside: 50 mM CF, 10 mM TRIS, 10 mM NaCl, pH 7.4 buffer; outside: 10 mM TRIS, 107 mM NaCl, pH 7.4. […] The CF efflux was monitored at λem 517 nm (λex 492 nm) as a function of time after addition of the desired volume of peptide from 2 mg/mL stock in mQ water at t = 45 s, 10 and 50 μg/mL were monitored for both EYPC and EYPG. […] Fluorescence intensities were then normalized to the maximal emission intensity using I(t) = (It – I0)/(I∞ – I0) where I0 = It at peptide addition, I∞ = It at saturation of lysis.

[23] = CD spectroscopy, α-helix content; assay type: physicochemical; conditions: 5 mM DPC in 7 mM PB buffer pH 7.4, Dichroweb Contin LL set 4
Protocol: CD experiments were measured on a Jasco J-715 spectropolarimeter. All the experiments were performed using Hellma Suprasil 110-QS 0.1 cm cuvettes. For each peptide, the measurements were performed in phosphate buffer (PB, pH = 7.4, 7 mM), 10% TFE, 20% TFE, 5 mM DPC. The buffer was degassed for 10 min under high vacuum before each set of experiments. The concentration of the peptides was 0.100 mg/mL, and each sample was measured in one accumulation. The scan rate was 20 nm/min, pitch was 0.5 nm, response was 16 s, and bandwidth was 1.0 nm. The nitrogen flow was kept >8 L/min. After each measurement, the cuvettes were washed successively with milli-Q H2O and PB (pH 7.4). The baseline was recorded under the same conditions and subtracted manually. Primary CD spectra were analyzed using DichroWeb[58] and Contin-LL method (set 4).[74]

[24] = MH broth pH 7.4, 16–20 h, 37 °C
[25] = supplementary CSV, ranges of Table 1 given as one number

Compound | MIC E. coli W3110 [1, 24] | MIC P. aeruginosa PAO1 [3, 24] | MIC P. aeruginosa PAO1 [3, 25] | MIC A. baumannii ATCC19606 [4, 24] | MIC K. pneumoniae NCTC418 [5, 24] | MIC K. pneumoniae NCTC418 [5, 25] | MIC S. aureus COL MRSA [6] | MIC S. aureus COL [6, 25] | EYPC vesicle leakage (%) [21] | EYPG vesicle leakage (%) [22] | α-helix content (%) [23] | MHC [20] | MHC ([20]; pH 7.4) | also measured
CC(C)C[C@H](NC(=O)[C@H](CC(C)C)NC(=O)[C@H](CC(C)C)NC(=O)[C@H](CCCCN)NC(=O)[C@@H](CC(C)C)NC(=O)[C@H](CC(C)C)NC(=O)[C@H](CCCCN)NC(=O)[C@@H](CC(C)C)NC(=O)[C@@H](CC(C)C)NC(=O)[C@@H](CCCCN)NC(=O)[C@@H](N)CCCCN)C(N)=O [HP11, KkllKLlKLLL] | 2 µg/mL (≈ 1.51 µM) | 2 to 4 µg/mL | 3 µg/mL (≈ 2.27 µM) | 2 µg/mL (≈ 1.51 µM) | 4 to 8 µg/mL | 6 µg/mL (≈ 4.54 µM) | 2 µg/mL (≈ 1.51 µM) | 2 µg/mL (≈ 1.51 µM) |  |  |  |  |  | MIC, span over the five bacterial strains [2]: 2 to 8 µg/mL; MIC A. baumannii ATCC19606 [4, 25]: 2 µg/mL (≈ 1.51 µM); IC50 [7]: 64.8 ± 4.3 µM; MIC Staphylococcus epidermis [8]: 4 µg/mL (≈ 3.03 µM); MIC Stenotrophomonas maltophilia [9]: 4 µg/mL (≈ 3.03 µM); MIC K. pneumoniae Oxa-48 [10]: 4 µg/mL (≈ 3.03 µM); MIC ZEM9A [11]: 8 µg/mL (≈ 6.05 µM); MIC S. aureus Newman [12, 24]: 2 µg/mL (≈ 1.51 µM); MIC S. aureus Newmann ([12]; supplementary CSV): 2 µg/mL (≈ 1.51 µM); MIC P. aeruginosa PA14 4.13 [13]: 2 µg/mL (≈ 1.51 µM); MIC ZEM-1A [14]: 2 µg/mL (≈ 1.51 µM); MIC P. aeruginosa PA14 4.18 [15]: 8 µg/mL (≈ 6.05 µM); MIC PA14 [16, 24]: 1 µg/mL (≈ 0.757 µM); MIC P. aeruginosa PA14 ([16]; supplementary CSV): 1 µg/mL (≈ 0.757 µM); MIC Burkolderia cenocepacia [17]: >64 µg/mL; MIC Enterobacter cloacae [18]: 4 µg/mL (≈ 3.03 µM); MIC P. aeruginosaPA14 2P4 [19]: 16 µg/mL (≈ 12.1 µM)
CC(C)C[C@H](NC(=O)[C@H](CC(C)C)NC(=O)[C@H](CC(C)C)NC(=O)[C@@H](CCCNC(=N)N)NC(=O)[C@H](CC(C)C)NC(=O)[C@H](CC(C)C)NC(=O)[C@@H](CCCNC(=N)N)NC(=O)[C@H](CC(C)C)NC(=O)[C@H](CC(C)C)NC(=O)[C@@H](CCCNC(=N)N)NC(=O)[C@H](N)CCCNC(=N)N)C(N)=O [HP33, rrLLrLLrLLL] (H-[dR][dR]LL[dR]LL[dR]LLL-NH2) | 4 to 8 µg/mL | 4 to 8 µg/mL | 6 µg/mL (≈ 4.18 µM) | 4 µg/mL (≈ 2.79 µM) | 4 to 8 µg/mL | 6 µg/mL (≈ 4.18 µM) | 2 to 4 µg/mL | 3 µg/mL (≈ 2.09 µM) | 56% | 85% | 63% |  |  | MIC E. coli W3110 [1, 25]: 6 µg/mL (≈ 4.18 µM); MHC ([20]; human red blood cells in PBS pH 7.4, 4 h, room temperature): 125 µg/mL; MHC ([20]; supplementary CSV, human red blood cells): 125 µg/mL
CC[C@H](C)[C@H](NC(=O)[C@@H](NC(=O)[C@@H](NC(=O)[C@@H](CCCCN)NC(=O)[C@@H](NC(=O)[C@@H](NC(=O)[C@@H](CCCCN)NC(=O)[C@@H](NC(=O)[C@@H](NC(=O)[C@@H](CCCCN)NC(=O)[C@H](N)CCCCN)[C@@H](C)CC)[C@@H](C)CC)[C@@H](C)CC)[C@@H](C)CC)[C@@H](C)CC)[C@@H](C)CC)C(N)=O [HP35, kkIIkIIkIII] (H-[dK][dK]II[dK]II[dK]III-NH2) | 4 µg/mL (≈ 3.03 µM) | 16 µg/mL (≈ 12.1 µM) |  | 8 µg/mL (≈ 6.05 µM) | >64 µg/mL |  | >64 µg/mL |  | 13% | 98% | 22% | 125 µg/mL | 125 µg/mL | MIC S. aureus COL ([6]; COL): >64 µg/mL
H-KKIIKIIKIII-NH2 [HP34] | 32 µg/mL | >64 µg/mL |  |  | >64 µg/mL |  | >64 µg/mL |  | 10% | 95% | 68% | 63 µg/mL | 62.5 µg/mL | MIC A. baumannii ATCC19606 ([4]; ATCC19606): 12 µg/mL; MIC A. baumannii ATCC19606 ([4]; ATCC19606, pH 7.4): 8 to 16 µg/mL; MIC K. pneumoniae NCTC418 ([5]; NCTC418): >64 µg/mL
